Test results as given in patent US12595269B2, “Morpholine-like monoamine releasers” (Solvonis Therapeutics Ireland Holdings Limited, priority 2022, dated 2026).

Test system: MDCKII cells
Test: Apparent permeability (Papp AB) in MDCKII cells
Type: in vitro ADME, Canine
Conditions: MDCKII cells, pH 7.4
Description: Methods and Procedure: This study was conducted in compliance with previously described procedures to assure data integrity and adherence to GLP regulations. The experiments described herein were designed to evaluate the apparent permeability (Papp) of test compounds at pH 7.4. Additionally, the MDCKII-MDR1 cell line (Madin-Darby Canine Kidney clone II cell line heterologously expressing the human P-glycoprotein transporter) and mock cell line MDCKII were used to determine whether a compound acted as a P-gp substrate, in the absence and in the presence of the potent P-gp inhibitor. Test control items (digoxin, metoprolol, and atenolol) and control P-gp inhibitor (GF120918) stock solution were prepared in DMSO. Bidirectional assays (Apical to Basolateral [AB] and Basolateral to Apical [BA]) were run, in both the absence and presence of P-gp inhibitor GF120918 in MDCKII-MDR1 and mock cell line MDCKII, using as transport buffer HBSSH at a pH of 7.4 (n=3).
Compounds were tested at a single concentration (i.e. at 3 or 10 μM) at one time point (i.e. 60 min). Alternative concentrations or time-points may also be investigated. As reference compounds, digoxin (P-gp substrate), atenolol (low permeable compound) and metoprolol (high permeable compound) were included at a single concentration (e.g., 10 or 25 μM) and at single time point (e.g., 60 min). Digoxin transport was evaluated in two directions (apical-to-basolateral [AB] and basolateral-to-apical [BA]) in the absence and presence of GF120918 or in mock cells, MDCKII (n=3). Atenolol and metoprolol were only tested in the AB direction in absence of GF120918 or in mock cells, MDCKII (n=3). The integrity of the cell monolayer was evaluated after the permeability experiment using the paracellular permeability marker Lucifer yellow (LY) in the apical to basolateral direction in each well.
MDCKII or MDCKII-MDRI cells cultivated using DMEM (high glucose, GlutaMAX™ supplemented with pyruvate, 10% FBS HI and Pen/Strep) and seeded onto microporous PET (Polyethylene Terephthalate) membranes in HTS 96-Multiwell Insert plates at density of ˜175,000-245,000 cells/cm^2 (25000-35000 cells/well; 50 μL/well) in DMEM medium and incubated for 3-4 days at 37° C.-5% CO2. Medium was changed a day before the experiment.
Stock solutions of test items were prepared in DMSO at a concentration of 5 or 10 mM and stored at −20° C. until use. The potent P-gp inhibitor, GF120918 (stock solution 10 mM) and the reference controls digoxin, atenolol, metoprolol (stock solutions 3 or 10 mM) were prepared in DMSO and stored at −20° C. until use.
Donor working solutions of test items and reference controls will be prepared at a concentration of 10 or 25 μM, diluting the stock solutions in HBSSH. Receiver working solutions contained transport buffer only. […]
MDCKII and MDCKII-MDR1 cells were preincubated (37° C., 15 to 30 minutes) in receiver working solutions containing transport buffer on apical (A) and basolateral (B) sides. Following pre-incubation, test items and control items (digoxin) transport were measured in two directions (apical to basolateral [AB]) and basolateral to apical [BA]), and these directions were performed in triplicate sets of wells, in both the absence and presence of […] GF120918 or mock MDCKII cells. […] Transport of permeability reference controls, atenolol and metoprolol, were measured in one direction (apical to basolateral [AB]) (n=3). […]

In the case of CNC(C)Cc1ccc2c(c1)OCO2 (stereo not shown) [MDMA, reference compound], the “Permeability Classification” value is reported as “high permeability”.
